Experiment: solvent given as SMILES

## N#Cc1cc2ccc3cc(C#N)c4ccccc4c3c2c2ccccc12
In ClC(Cl)Cl
  emission maximum: 429 nm

## CCCC1=CC2=C(c3c(C)cc(C)cc3C)c3cc(CCC)c(-c4ccc5ccc6cccc7ccc4c5c67)n3[B-](F)(F)[N+]2=C1c1ccc2ccc3cccc4ccc1c2c34
In ClC(Cl)Cl
  emission maximum: 626 nm

## COc1ccc2n1[B-](F)(F)[N+]1=C(SC#N)C=CC1=C2c1ccccc1
In CC#N
  emission maximum: 527 nm
In CCCCCC
  emission maximum: 532 nm
In CCOC(C)=O
  emission maximum: 529 nm
In CO
  emission maximum: 526 nm
In ClCCl
  emission maximum: 531 nm

## Oc1cc(-c2cccs2)ccc1-c1nc2ccccc2s1
In CCO
  emission maximum: 408 nm
In ClCCl
  emission maximum: 515 nm
In O
  emission maximum: 517 nm

## C(#Cc1cc(C#Cc2ccccc2)c(C#Cc2ccccc2)c(C#Cc2ccccc2)c1C#Cc1ccccc1)c1ccccc1
In ClCCl
  emission maximum: 424 nm

## C(C#Cc1ccc2ccc3cccc4ccc1c2c34)#Cc1cccc2ccccc12
In C1CCCCC1
  emission maximum: 411 nm
In CC#N
  emission maximum: 420 nm
In CO
  emission maximum: 414 nm
In ClCCl
  emission maximum: 420 nm

## CCN(CC)c1ccc2cc(C#N)/c(=N\C(=O)c3ccco3)oc2c1
In CCO
  emission maximum: 470 nm
In ClCCl
  emission maximum: 460 nm

## N#Cc1cc(/C=C/c2ccc(N(c3ccccc3)c3ccccc3)cc2)ccc1-c1ccc(/C=C/c2ccc(N(c3ccccc3)c3ccccc3)cc2)cc1C#N
In ClCCl
  emission maximum: 472 nm

## CC1CCC(=CS/C=C/c2ccc(-c3ccc(/C=C/SC=C4CCC(C)CC4)cc3)cc2)CC1 (stereo not given)
In ClCCl
  emission maximum: 432 nm

## COc1ccc(C#Cc2nc3ccccc3nc2-c2ccn(-c3ccccc3)c2)cc1
In ClCCl
  emission maximum: 474 nm

## CCCN1/C(=C/C=C(/C=C/C2=[N+](CCC)c3ccccc3C2(C)C)c2ccc3ccccc3n2)C(C)(C)c2ccccc21
In CO
  emission maximum: 652 nm
In CS(C)=O
  emission maximum: 664 nm
In O
  emission maximum: 653 nm

## Cc1ccc(-n2cccc2)cc1
In CC#N
  emission maximum: 312 nm
In CCCCCC
  emission maximum: 310 nm

## FC(F)(F)c1ccc(/C=C2\C=C(c3ccccc3)C=C2c2ccccc2)cc1
In C1CCOC1
  emission maximum: 516 nm

## CCCCCCN1C(=O)c2cccc3c(-c4cccs4)ccc(c23)C1=O
In ClC(Cl)Cl
  emission maximum: 465 nm

## COC(=O)c1ccc(C(=O)NC(C)(C)C)c2c1ccc1c3ccccc3c3ccccc3c12
In ClCCl
  emission maximum: 448 nm

## CCCCCCCCOc1ccc(-c2c3c4n(c(-c5ccc(OCCCCCCCC)cc5)c3c3n2[B-](c2ccccc2)(c2ccccc2)[n+]2c(ccc5cc(C(C)(C)C)ccc52)C=3C#N)[B-](c2ccccc2)(c2ccccc2)[n+]2c(ccc3cc(C(C)(C)C)ccc32)C=4C#N)cc1
In ClC(Cl)Cl
  emission maximum: 831 nm

## c1ccc(N2c3ccc4ccccc4c3-c3c4ccccc4nc[n+]3[B-]2(c2ccccc2)c2ccccc2)cc1
In C1CCC2CCCCC2C1
  emission maximum: 642 nm
In C1CCCCC1
  emission maximum: 640 nm
In C1CCOC1
  emission maximum: 665 nm
In CC#N
  emission maximum: 677 nm
In CC(C)=O
  emission maximum: 675 nm
In CCCCCC
  emission maximum: 641 nm
In CCOC(C)=O
  emission maximum: 665 nm
In CN(C)C=O
  emission maximum: 680 nm
In Cc1ccccc1
  emission maximum: 654 nm
In ClC(Cl)Cl
  emission maximum: 676 nm

## Cc1ccc(C2=C3C=C(I)C=[N+]3[B-](F)(F)n3cccc32)cc1
In C1CCCCC1
  emission maximum: 540 nm
In CC#N
  emission maximum: 546 nm
In CCO
  emission maximum: 547 nm
In CCOC(C)=O
  emission maximum: 543 nm
In CO
  emission maximum: 546.5 nm
In OCC(F)(F)F
  emission maximum: 538.5 nm

## N#Cc1ccc(/C=C2\C=C(c3ccccc3)OC2=O)cc1
In C1COCCO1
  emission maximum: 494 nm

## F[B-]1(F)Oc2c(-c3cccc4c3O[B-](F)(F)[n+]3c(-c5ccccc5)c(-c5ccccc5)n(-c5ccc(C(F)(F)F)cc5)c3-4)cccc2-c2n(-c3ccc(C(F)(F)F)cc3)c(-c3ccccc3)c(-c3ccccc3)[n+]21
In C1CCOC1
  emission maximum: 399 nm

## C[P+]1(c2ccccc2)c2ccccc2-c2sc3ccccc3c21 (stereo not given)
In CC#N
  emission maximum: 442 nm
In CCO
  emission maximum: 442 nm
In ClCCl
  emission maximum: 445 nm

## CCCCCCN(CCCCCC)c1ccc(C#Cc2ccc(C(F)(F)F)cc2)cc1
In CO
  emission maximum: 456 nm
In ClCCl
  emission maximum: 440 nm

## Clc1cc(Cl)c([C](c2c(Cl)cc(Cl)cc2Cl)c2c(Cl)cc(-n3c4ccccc4c4ccccc43)cc2Cl)c(Cl)c1
In C1CCCCC1
  emission maximum: 628 nm
In ClC(Cl)Cl
  emission maximum: 680 nm

## S=c1[nH]nc(-c2ccc(/C=C/c3ccc(-c4n[nH]c(=S)o4)cc3)cc2)o1
In CN(C)C=O
  emission maximum: 401 nm

## O=C(c1ccccc1)c1cc2ccc1CCc1ccc(cc1-c1ccc(N(c3ccccc3)c3ccccc3)cc1)CC2
In Cc1ccccc1
  emission maximum: 492 nm
In c1cc(-n2c3ccccc3c3ccccc32)cc(-n2c3ccccc3c3ccccc32)c1
  emission maximum: 481.13 nm

## CC(C)(C)c1ccc2oc3nc4oc5cc(-n6c7ccccc7c7ccccc76)ccc5c4cc3c2c1
In ClC(Cl)Cl
  emission maximum: 396 nm

## COc1ccc(N2c3ccc4ccccc4c3-c3c4ccccc4cc[n+]3[B-]2(c2ccccc2)c2ccccc2)cc1
In Cc1ccccc1
  emission maximum: 641 nm

## COc1ccc2cc(-c3ccc([N+](=O)[O-])cc3)ccc2c1
In C1CCOC1
  emission maximum: 534 nm
In CC#N
  emission maximum: 647 nm
In ClC(Cl)Cl
  emission maximum: 573 nm
In ClCCl
  emission maximum: 591 nm

## FC(F)(F)c1ccc(-c2ncc3ccccn23)cc1
In ClC(Cl)Cl
  emission maximum: 459 nm

## Cc1cc(-c2ccc(C(C)(C)C)cc2)cc(C)[o+]1
In CC#N
  emission maximum: 430 nm
In ClCCl
  emission maximum: 417 nm

## COc1ccc(-c2oc3cccc4c5c(-c6ccc(OC)c(OC)c6)c(=N)oc6cccc(c2c34)c65)cc1OC
In ClC(Cl)Cl
  emission maximum: 510 nm

## Cc1c(COC(=O)c2ccc(I)cc2)n2c(OCC(=O)c3ccc(I)cc3)c(C)c(=O)n2c1=O
In CCO
  emission maximum: 458 nm

## COc1cc2c3sc4ccccc4c3c3cncnc3c2c(OC)c1OC
In ClCCl
  emission maximum: 426 nm

## COC(=O)C(NC(=O)OC(C)(C)C)c1ccc2oc(-c3ccc(O)cc3O)nc2c1 (stereo not given)
In CC1CCCCC1
  emission maximum: 470 nm
In CC#N
  emission maximum: 380 nm
In CO
  emission maximum: 365 nm

## COc1ccc(-c2oc3cccc4c5c(-c6ccc(OC)cc6)/c(=N/S(=O)(=O)C(F)(F)F)oc6cccc(c2c34)c65)cc1
In ClC(Cl)Cl
  emission maximum: 612 nm

## Oc1ccccc1-c1nc2c3ccccc3c3ccccc3c2n1-c1ccccc1
In Cc1ccccc1
  emission maximum: 369 nm

## CCCCC1(c2ccccc2)Nc2c(-c3ccc(N(C)C)cc3)ccc(-c3ccc(N(C)C)cc3)c2N=C1c1ccccc1 (stereo not given)
In C1CCOC1
  emission maximum: 568 nm
In CC#N
  emission maximum: 588 nm
In CCCCCC
  emission maximum: 530 nm
In CN(C)C=O
  emission maximum: 596 nm
In Cc1ccccc1
  emission maximum: 547 nm
In ClC(Cl)Cl
  emission maximum: 561 nm

## CC1(C)c2ccccc2N(c2c(F)cc(-c3nnc(-c4ccccc4)o3)cc2F)c2ccccc21
In Cc1ccccc1
  emission maximum: 490 nm
In O=P(c1ccccc1)(c1ccccc1)c1ccccc1Oc1ccccc1P(=O)(c1ccccc1)c1ccccc1
  emission maximum: 495 nm

## O=c1cc(C(F)(F)F)c2cc3c4c(c2o1)CCCN4CCC3
In C1CCCCC1
  emission maximum: 455 nm
In CC#N
  emission maximum: 521 nm
In CCO
  emission maximum: 531 nm
In CCOC(C)=O
  emission maximum: 501 nm
In OCC(O)CO
  emission maximum: 546 nm

## COc1ccc(C2=C(c3ccc(OC)cc3)[Si](c3ccccc3)(c3ccccc3)c3ccccc32)cc1
In C1CCOC1
  emission maximum: 457 nm

## CON(C)C(=O)c1ccc(/C=C/c2ccc(/C=C/c3ccc(C(=O)N(C)OC)cc3)cc2)cc1
In c1ccccc1
  emission maximum: 434 nm

## CCCCCCCCCCCCC1(CCCCCCCCCCCC)c2cc(-c3ccc(C=C4C(=O)c5ccccc5C4=O)cc3)ccc2-c2ccc(-c3ccc(C=C4C(=O)c5ccccc5C4=O)cc3)cc21
In C1CCOC1
  emission maximum: 531 nm
In CC(C)=O
  emission maximum: 566 nm
In CCCCCC
  emission maximum: 463 nm
In CS(C)=O
  emission maximum: 598 nm
In Cc1ccccc1
  emission maximum: 490 nm
In ClC(Cl)Cl
  emission maximum: 529 nm

## F[Si](c1ccccc1)(c1ccccc1)c1cccc2ccccc12
In C1CCOC1
  emission maximum: 332 nm

## N[C@@H](Cc1ccc(O)cc1)C(=O)O
In O
  emission maximum: 300 nm

## Cc1cc(C)c(B(c2ccccc2N(c2ccccc2)c2ccccc2)c2c(C)cc(C)cc2C)c(C)c1
In CC(C)=O
  emission maximum: 532.95 nm
In Cc1ccccc1
  emission maximum: 498 nm
In ClCCl
  emission maximum: 518.5 nm

## CC(C)(C)[Si](C)(C)c1cccc2ccccc12
In C1CCCCC1
  emission maximum: 329 nm

## c1ccc(-c2cc(-c3ccccc3)[o+]c(-c3ccccc3)c2)cc1
In CC#N
  emission maximum: 465 nm
In ClCCCl
  emission maximum: 463 nm

## CN1C(=CC2=C([O-])C(=Cc3oc4ccccc4[n+]3C)C2=O)C(C)(C)c2ccccc21
In ClC(Cl)Cl
  emission maximum: 619 nm

## COc1ccc(C2=Cc3cc4ccccc4cc3P2(=O)c2ccccc2)cc1 (stereo not given)
In ClCCl
  emission maximum: 448 nm

## Nc1cccc2c1C(=O)c1ccccc1-2
In C1CCCCC1
  emission maximum: 471 nm
In CC#N
  emission maximum: 501 nm
In CCO
  emission maximum: 521 nm
In c1ccccc1
  emission maximum: 482 nm

## O=C(O)CCCCCn1c2ccccc2c(=O)c2cc(Br)ccc21
In O
  emission maximum: 432 nm

## COc1ccc2c(c1)CCC1=C(C#Cc3ccc(Cl)cc3)O[B-](F)(F)[O+]=C12
In ClCCl
  emission maximum: 472 nm

## Cc1ccc(-n2c(-c3ccccc3NS(=O)(=O)c3ccc(C)cc3)nc3c4ccccc4c4ccccc4c32)cc1
In Cc1ccccc1
  emission maximum: 365 nm

## Cc1ccc2c(c1)c1cc(C)ccc1n2-c1c(C#N)c(-n2c3ccc(C)cc3c3cc(C)ccc32)c(-n2c3ccc(C)cc3c3cc(C)ccc32)c(C#N)c1-n1c2ccc(C)cc2c2cc(C)ccc21
In Cc1ccccc1
  emission maximum: 561 nm

## CN1C(=O)/C(=C/c2ccncc2)N=C1/C=C/c1ccccc1
In C1COCCO1
  emission maximum: 546 nm
In CC#N
  emission maximum: 550 nm
In CCO
  emission maximum: 550 nm
In CCOC(C)=O
  emission maximum: 544 nm
In O
  emission maximum: 560 nm

## CCOC(=O)/C=C/C1=[N+]2C(=C(c3c(C)cc(C)cc3C)c3ccc(/C=C/C(=O)OCC)n3[B-]2(F)F)C=C1
In ClCCl
  emission maximum: 602 nm

## CC(=O)c1ccc(-c2nc3ccc(N(C)C)c(Br)c3s2)cc1
In C1CCCCC1
  emission maximum: 424 nm
In CC#N
  emission maximum: 568 nm
In CC(C)O
  emission maximum: 580.16 nm
In CO
  emission maximum: 622 nm
In CS(C)=O
  emission maximum: 563.56 nm
In ClC(Cl)Cl
  emission maximum: 505 nm
In c1ccccc1
  emission maximum: 472.87 nm

## O=c1c2ccccc2c2c3c(cccc13)c(-c1ccccc1)c1c3cccc4cccc(c43)c12
In CC#N
  emission maximum: 519 nm
In CO
  emission maximum: 562 nm

## N#Cc1ccccc1N1c2ccccc2C(c2ccccc2)(c2ccccc2)c2ccccc21
In Cc1ccccc1
  emission maximum: 441 nm

## N#Cc1c(-n2nnc3c2CCC2C(CC3)[C@@H]2CO)n([C@H]2C[C@H](O)[C@@H](CO)O2)c2ncnc(N)c12 (stereo not given in full)
In CO
  emission maximum: 380 nm
